In US9057090B2, “Method of identifying an agent for inhibiting odor of pyrazine derivatives” (Kao Corporation, priority 2012, dated 2015):

Biological target: T1, olfactory receptor OR5K1 (Homo sapiens, UniProt Q8NHB7)
T1 construct: expressed in transfected cells; host or cells: HEK293
T1 sequence (Q8NHB7 1-308): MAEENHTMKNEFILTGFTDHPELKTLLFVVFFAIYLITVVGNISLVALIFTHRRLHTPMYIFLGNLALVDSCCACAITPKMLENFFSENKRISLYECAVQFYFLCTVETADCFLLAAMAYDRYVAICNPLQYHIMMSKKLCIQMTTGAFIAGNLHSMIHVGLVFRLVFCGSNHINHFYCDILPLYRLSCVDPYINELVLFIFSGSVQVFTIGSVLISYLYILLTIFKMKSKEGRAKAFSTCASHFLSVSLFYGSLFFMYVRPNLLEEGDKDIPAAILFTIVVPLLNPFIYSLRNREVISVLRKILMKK
Assay: Luciferase reporter gene assay: response of olfactory receptor to pyrazine derivatives
Assay type: cell-based
Settings: for response of OR5K1, dependency on concentration: 0, 3, 10, 30, 100, 300 and 1000 μM, HEK293 cells expressing OR5K1 with RTP1S variant, FIG. 2
Protocol: HEK293 cells expressing 373 types of human olfactory receptors were produced. A reaction solution having a composition shown in Table 1 was prepared and left to stand in a clean bench for 15 min and then was dispensed in each well of a 96-well plate (Becton, Dickinson and Company). Subsequently, HEK293 cells (100 μL, 3×10^5 cells/cm^2) were seeded in each well and cultured in an incubator at 37° C. and 5% CO2 for 24 hr.
An olfactory receptor expressed in HEK293 cells couples with endogenous Gas in the cells to activate adenylate cyclase and thereby increases the amount of intracellular cAMP. In this study, the response of a pyrazine derivative was measured by luciferase reporter gene assay which monitors an increase in the amount of intracellular cAMP as the luminescence value derived from a firefly luciferase gene (fluc2P-CRE-hygro). A Renilla luciferase gene was fused downstream of a CMV promoter (hRluc-CMV) and was also introduced to HEK293 cells as an internal standard to correct errors in transgenic efficiency and number of cells.
The culture medium was removed from the culture produced in the above 3), and 75 μL of a solution prepared with a CD293 medium (Invitrogen Inc.) so as to contain a pyrazine derivative (1 mM 2,6-dimethylpyrazine) was added thereto. The cells were cultured in a CO2 incubator for 2.5 hr to sufficiently express the luciferase gene in the cells. The luciferase activity was measured with a Dual-Glo™ luciferase assay system (Promega Corporation) in accordance with the operating manual of the system. The fold increases were calculated by dividing the luminescence value derived from firefly luciferase induced by stimulation with a pyrazine derivative at each concentration by the luminescence value in cells not stimulated with the pyrazine derivative and were used as an index of response strength.
Olfactory receptor OR5K1 (SEQ ID NO: 2) was expressed in HEK293 cells together with an RTP1S variant (SEQ ID NO: 4) by the same procedure as in Example 1, and the dependency of the response on the concentration (0, 3, 10, 30, 100, 300, and 1000 μM) of various pyrazine compounds was investigated. The pyrazine compounds used in this Example were pyrazine and pyrazine derivatives selected from the group consisting of 2-methylpyrazine, 2,3-dimethylpyrazine, 2,5-dimethylpyrazine, 2,3,5-trimethylpyrazine, 2,3,5,6-tetramethylpyrazine and 2-ethylpyrazine.

Row | response of OR5K1, dependency on concentration | response of the 373 types of olfactory receptors to the pyrazine derivative (1 mM, HEK293 cells expressing human olfactory receptors, FIG. 1) | Structure (SMILES)
1 | responded in a dose-dependent manner | only olfactory receptor OR5K1 responded | Cc1cncc(C)n1 [2,6-dimethylpyrazine]
2 | responded in a dose-dependent manner |  | Cc1cnc(C)cn1 [2,5-dimethylpyrazine]
3 | did not respond |  | c1cnccn1 [pyrazine]

Row | Structure (SMILES) | response of OR5K1, dependency on concentration | response of the 373 types of olfactory receptors to the pyrazine derivative (1 mM, HEK293 cells expressing human olfactory receptors, FIG. 1)
4 | Cc1nccnc1C [2,3-dimethylpyrazine] | responded in a dose-dependent manner | 
